The subject of the assay is semi-synthetic organism (SSO) (strain YZ3). Nature of the assay: Replication and UBP retention in vivo in the semi-synthetic organism (streptavidin biotin shift, PAGE), Example 1. The conditions noted are these: for UBP retention in vivo, in words: discussion. In kind it is cell-based, Escherichia coli. The protocol:
All bacteria were cultured in 100 μL of liquid 2×YT media (casein peptone 16 g/L, yeast extract 10 g/L, NaCl 5 g/L) supplemented with potassium phosphate (50 mM, pH 7) in 96-well microwell plates. When noted, antibiotics were used at the following concentrations: chloramphenicol, 5 μg/mL; ampicillin, 100 μg/mL. Cell growth, indicated as OD600, was measured using a Perkin Elmer EnVision 2103 Multilabel Reader with a 590/20 nm filter. Unless otherwise stated, molecular biology reagents were purchased from New England Biolabs (Ipswich, MA) and were used according to the manufacturer's protocols. As necessary, purification of nucleic acids was accomplished by micro-elution columns (Zymo Research Corp; Irvine, CA). All natural oligonucleotides were purchased from IDT (San Diego, CA), and oligonucleotides containing dNaM were synthesized by Biosearch Technologies (Petaluma, CA) with purification by reverse phase cartridge. Unnatural nucleotide triphosphates were prepared, and confirmed by MALDI-TOF and UV/Vis.
Plasmids containing the dNaM-dTPT3 UBP were prepared and used to transform the semi-synthetic organism (SSO). To create a template for in vivo replication assays, Golden Gate assembly was used to construct a derivative of the pUC19 plasmid in which a single dNaM-dTPT3 UBP was embedded within the TK1 sequence ([…]; […]), a context within which the UBP is well replicated in the SSO. Plasmids were then used to transform the SSO (strain YZ3). Following transformation, the SSO was allowed to recover at 37° C. for 1 h in media containing dNaMTP (125 μM) and dTPT3TP (25 μM). Cells were pelleted by centrifugation, resuspended in fresh media lacking unnatural triphosphates, split into 100-μL aliquots and then used to inoculate cultures containing different pairs of unnatural triphosphates at the specified concentrations. When the cell density reached an OD600 of ˜0.7, cells were pelleted and plasmids were recovered and PCR amplified with d5SICSTP and a biotinylated analog of dNaMTP, and UBP retention was determined by comparing the intensity of the streptavidin shifted and unshifted bands via PAGE.

[1] abbreviates: context 1, dNaMTP 125 μM, dTPT3TP analog 125 μM.
The mark [2] stands for this setting: context 2 (AXA), dTPT3TP 2.5 μM, dNaMTP analog 2.5 μM.
The mark [3] stands for this setting: context 2 (AXA), dTPT3TP 2.5 μM, dNaMTP analog 10 μM.
Setting [4] is: context 2 (AXA), dTPT3TP 2.5 μM, dNaMTP analog 25 μM.
Where [5] appears, read: context 2 (AXA), dTPT3TP 10 μM, dNaMTP analog 2.5 μM.
The mark [6] stands for this setting: context 2 (AXA), dTPT3TP 10 μM, dNaMTP analog 10 μM.
Where [7] appears, read: context 2 (AXA), dTPT3TP 10 μM, dNaMTP analog 25 μM.
The mark [8] stands for this setting: context 2 (AXA), dTPT3TP 25 μM, dNaMTP analog 2.5 μM.
Where [9] appears, read: context 2 (AXA), dTPT3TP 25 μM, dNaMTP analog 10 μM.
Where [10] appears, read: context 2 (AXA), dTPT3TP 25 μM, dNaMTP analog 25 μM.
[11] abbreviates: context 2 (AXA), paired with dSICSTP 10 μM, dNaMTP analog 25 μM.
Where [12] appears, read: context 3 (CXC), dTPT3TP 2.5 μM, dNaMTP analog 2.5 μM.
The mark [13] stands for this setting: context 3 (CXC), dTPT3TP 2.5 μM, dNaMTP analog 10 μM.
The mark [14] stands for this setting: context 3 (CXC), dTPT3TP 2.5 μM, dNaMTP analog 25 μM.
[15] abbreviates: context 3 (CXC), dTPT3TP 10 μM, dNaMTP analog 2.5 μM.
[16] abbreviates: context 3 (CXC), dTPT3TP 10 μM, dNaMTP analog 10 μM.
The mark [17] stands for this setting: context 3 (CXC), dTPT3TP 10 μM, dNaMTP analog 25 μM.
The mark [18] stands for this setting: context 3 (CXC), dTPT3TP 25 μM, dNaMTP analog 2.5 μM.
Where [19] appears, read: context 3 (CXC), dTPT3TP 25 μM, dNaMTP analog 10 μM.
Where [20] appears, read: context 3 (CXC), dTPT3TP 25 μM, dNaMTP analog 25 μM.
[21] abbreviates: dNaMTP analog paired with dTPT3TP.

The structures appear in SMILES notation. Where “and” joins values, the source holds several entries; their conditions need not be identical. Identical values can stand only once.

As to `Cc1ccc2ccn(C3CC(O)C(COP(=O)(O)OP(=O)(O)OP(=O)(O)O)O3)c(=S)c2c1` (stereo not drawn) [d4SICS], the UBP retention entry under setting [1] is reported as “significant UBP retention”.

Consider `COc1cc(C)c(F)cc1C1CC(O)C(COP(=O)(O)OP(=O)(O)OP(=O)(O)O)O1` (stereo not drawn) [d5FMTP], for which the “UBP retention (%)” value is, setting by setting: under setting [2], 47 ± 14%; under setting [3], 61 ± 27%; under setting [4], 75 ± 6%; under setting [5], 69 ± 6%; under setting [6], 83 ± 5%; under setting [7], 87 ± 12%. The “UBP retention (%)” value is, setting by setting: under setting [8], 76 ± 9%; under setting [9], 95 ± 3%; under setting [10], 90 ± 7%; under setting [12], 9 ± 6%; under setting [13], 10 ± 5%; under setting [14], 11 ± 8%. Moreover, the “UBP retention (%)” value by setting is: under setting [15], 6 ± 4%; under setting [16], 14 ± 5%; under setting [17], 27 ± 14%; under setting [18], 14 ± 3%; under setting [19], 33 ± 16%; under setting [20], 49% and 49 ± 27%. Besides, the UBP retention under setting [11] is 68%.

In the case of `COc1cc(C#N)ccc1C1CC(O)C(COP(=O)(O)OP(=O)(O)OP(=O)(O)O)O1` (stereo not drawn) [dCNMOTP], the “UBP retention (%)” value was 98% (Table 5, sequence context 1 (AXT), dTPT3TP 25 μM, dNaMTP or dCNMOTP 25 μM); 98 ± 7% (Table 5, sequence context 1 (AXT), dTPT3TP 25 μM, dNaMTP or dCNMOTP 25 μM, listed as dCNMO); 99 ± 8% (Table 5, sequence context 1 (AXT), dTPT3TP 25 μM, dNaMTP or dCNMOTP 125 μM); 101 ± 10% (Table 5, sequence context 2 (AXA), dTPT3TP 25 μM, dNaMTP or dCNMOTP 25 μM); 100 ± 10% (Table 5, sequence context 2 (AXA), dTPT3TP 25 μM, dNaMTP or dCNMOTP 125 μM); 42% (Table 5, sequence context 3 (CXC), dTPT3TP 25 μM, dNaMTP or dCNMOTP 25 μM). For the same compound, the “UBP retention (%)” value stood at 42 ± 18% (Table 5, sequence context 3 (CXC), dTPT3TP 25 μM, dNaMTP or dCNMOTP 25 μM, listed as dCNMO); 65% (Table 5, sequence context 3 (CXC), dTPT3TP 25 μM, dNaMTP or dCNMOTP 125 μM); 65 ± 7% (Table 5, sequence context 3 (CXC), dTPT3TP 25 μM, dNaMTP or dCNMOTP 125 μM, listed as dCNMO); 14 ± 5% (Table 5, sequence context 4 (CXG), dTPT3TP 25 μM, dNaMTP or dCNMOTP 25 μM); 24% (Table 5, sequence context 4 (CXG), dTPT3TP 25 μM, dNaMTP or dCNMOTP 125 μM); 24 ± 13% (Table 5, sequence context 4 (CXG), dTPT3TP 25 μM, dNaMTP or dCNMOTP 125 μM, listed as dCNMO). The “UBP retention (%)” value under setting [2] worked out at 92 ± 4%; the “UBP retention (%)” value under setting [3] was 82 ± 24%; the “UBP retention (%)” value under setting [4] was 91 ± 10%; the “UBP retention (%)” value under setting [5] turned out to be 88 ± 9%; the “UBP retention (%)” value under setting [6] was 91 ± 3%; the “UBP retention (%)” value under setting [7] was 95 ± 2%. For the same compound, the “UBP retention (%)” value is, setting by setting: under setting [8], 103 ± 7%; under setting [9], 103 ± 1%; under setting [10], 101 ± 10%; under setting [12], 9 ± 1%; under setting [13], 22 ± 10%; under setting [14], 31 ± 14%. The “UBP retention (%)” value by setting is: under setting [15], 13 ± 5%; under setting [16], 28 ± 7%; under setting [17], 35 ± 8%; under setting [18], 22 ± 7%; under setting [19], 25 ± 22%; under setting [20], 42% and 42 ± 18%. For the same compound, under setting [11], the UBP retention is given as 59%.

`COc1cc(Cl)ccc1C1CC(O)C(COP(=O)(O)OP(=O)(O)OP(=O)(O)O)O1` (stereo not drawn) [dClMOTP]: the “UBP retention (%)” value under setting [2] is 73 ± 10%; the “UBP retention (%)” value under setting [3] was found to be 84 ± 7%; the “UBP retention (%)” value under setting [4] was 86 ± 6%; the “UBP retention (%)” value under setting [5] is reported as 83 ± 9%; the “UBP retention (%)” value under setting [6] is on record as 89 ± 5%; the “UBP retention (%)” value under setting [7] turned out to be 96 ± 2%. The “UBP retention (%)” value runs as follows: under setting [8], 80 ± 20%; under setting [9], 92 ± 4%; under setting [10], 98 ± 4%; under setting [12], 9 ± 2%; under setting [13], 7 ± 4%; under setting [14], 12 ± 2%. Moreover, the “UBP retention (%)” value reads like this: under setting [15], 9 ± 1%; under setting [16], 15 ± 2%; under setting [17], 14 ± 5%; under setting [18], 8 ± 4%; under setting [19], 20 ± 7%; under setting [20], 21%. In addition, under “context 3 (CXC), dTPT3TP 25 μM, dNaMTP analog 25 μM, listed as dCIMOTP”, the “UBP retention (%)” value came out at 21 ± 14%. Moreover, the UBP retention under setting [11] is listed as 61%.

Turning to `C#Cc1cc(OC)c(C2CC(O)C(COP(=O)(O)OP(=O)(O)OP(=O)(O)O)O2)cc1F` (stereo not drawn) [dFEMOTP], the “UBP retention in vivo, in words” value under setting [21] was “well retained in vivo when supplemented at high concentrations”.

In the case of `Cc1cc2c(=S)n(C3CC(O)C(COP(=O)(O)OP(=O)(O)OP(=O)(O)O)O3)ccc2o1` (stereo not drawn) [dFPT1], the UBP retention result under setting [1] is on record as “significant UBP retention”.

As for `COc1cc(C)ccc1C1CC(O)C(COP(=O)(O)OP(=O)(O)OP(=O)(O)O)O1` (stereo not drawn) [dMMO2TP], the “UBP retention (%)” value is, setting by setting: under setting [2], 17 ± 8%; under setting [3], 54 ± 19%; under setting [4], 47 ± 20%; under setting [5], 68 ± 16%; under setting [6], 67 ± 16%; under setting [7], 88 ± 7%. Moreover, the “UBP retention (%)” value under setting [8] stood at 63 ± 31%; the “UBP retention (%)” value under setting [9] was found to be 86 ± 11%; the “UBP retention (%)” value under setting [10] is listed as 90 ± 4%; the “UBP retention (%)” value under setting [12] is recorded as 5 ± 3%; the “UBP retention (%)” value under setting [13] was 10 ± 3%; the “UBP retention (%)” value under setting [14] was found to be 13 ± 4%. Also, the “UBP retention (%)” value is 9 ± 3% under setting [15]; 16 ± 10% under setting [16]; 22 ± 10% under setting [17]; 19 ± 8% under setting [18]; 36 ± 12% under setting [19]; 45% and 45 ± 20% under setting [20]. Moreover, the UBP retention under setting [11] came out at 19%.

With `O=P(O)(O)OP(=O)(O)OP(=O)(O)OCC1OC(n2ccc3ccccc3c2=S)CC1O` (stereo not drawn) [dSICSTP], under setting [1], the UBP retention result was “significant UBP retention”.

With `O=P(O)(O)OP(=O)(O)OP(=O)(O)OCC1OC(n2ccc3ncccc3c2=S)CC1O` (stereo not drawn) [dSNICS], the UBP retention entry under setting [1] was “significant UBP retention”. Besides, for the setting “dTPT3TP analog paired with dNaMTP”, the “UBP retention in vivo, in words” value is “moderate retention at both low and high concentrations”.

`Cc1cc2c(=S)n(C3CC(O)C(COP(=O)(O)OP(=O)(O)OP(=O)(O)O)O3)ccc2s1` (stereo not drawn) [dTPT1]: under setting [1], the UBP retention result is listed as “significant UBP retention”.

`O=P(O)(O)OP(=O)(O)OP(=O)(O)OCC1OC(n2ccc3ccsc3c2=S)CC1O` (stereo not drawn) [dTPT3TP]: the UBP retention entry by setting is: under setting [1], “significant UBP retention”; (context 2 (AXA), dTPT3TP 10 μM paired with each of the four dNaMTP analogs at 25 μM) above 87%.

For `COc1cc(N=[N+]=[N-])ccc1C1CC(O)C(COP(=O)(O)OP(=O)(O)OP(=O)(O)O)O1` (stereo not drawn) [dZMOTP], the “UBP retention in vivo, in words” value under setting [21] was “well retained in vivo when supplemented at high concentrations”.

For the origin of these results see patent US12497642B2, “Incorporation of unnatural nucleotides and methods of use in vivo thereof” (THE SCRIPPS RESEARCH INSTITUTE, priority 2017, dated 2025).
